As usually defined, the inhibition is the change of the read-out against control, counted positive when it falls.

Structures are written as SMILES.

This is an account of results in patent US10077261B2, “Imidazolin-5-one derivative useful as FASN inhibitors for the treatment of cancer” (Janssen Pharmaceutica NV, priority 2012, dated 2018).

The target of assay [1] is Fatty Acid Synthase Keto-reductase Domain (FASN KR) (Homo sapiens, UniProt P49327). The experiment in a line: Fatty Acid Synthase keto-reductase domain (FASN KR) inhibition, NADPH oxidation at 340 nm.
Method: After 20 minutes incubation at room temperature the plate was measured again (T2).
The decrease in absorbance was calculated as (Absorbance before incubation T1)−(Absorbance following incubation T2).
A plot of Controlmin versus test compound concentration was fitted to a 4-parameter logistic curve using a non-linear least squares regression method.
For assay [2], the system named is PC-3M-Luc-C6 prostate cells. The experiment in a line: In vitro PC-3M-Luc-C6 prostate cell proliferation assay in lipid reduced medium. Format: cell-based. To be noted: 96 h, read-out: pIC50 PC-3M-Luc-C6 prostate cell (converted).
The subject of assay [3] is A2780 ovarian cells. The experiment in a line: A2780 ovarian cell proliferation assay in lipid reduced medium, with palmitate (MTT). In kind it is cell-based. As to conditions: Homo sapiens, A2780, 96 h; read-out: pIC50 A2780 Ovarian Cell, With Palmitate (converted). The method in brief:
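In this palmitate-supplemented format, compound dilutions (30 μM down to 0.01 μM) are added to cells in lipid-reduced serum with 25 μM palmitate, 0.2% fatty-acid-free BSA and 0.25% ethanol. After four days (96 h) MTT absorbance at 544 nm is recorded and fitted by minimum sum of squares.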

Assay [4] deals with LNCaP-Vancouver prostate cells. The experiment in a line: In vitro LNCaP Vancouver prostate cell proliferation assay in lipid reduced medium. Format: cell-based. To be noted: read-out: pIC50 LNCaP_Vancouver prostate cell (converted).
Assay [5] has as its system A2780 ovarian cells. The experiment in a line: A2780 ovarian cell proliferation assay in lipid reduced medium, without palmitate (MTT). Format: cell-based. To be noted: Homo sapiens, A2780, 96 h; read-out: pIC50 A2780 Ovarian Cell, Without Palmitate (converted).
In assay [6] the target is T1, hFASN enzyme (full length) (Homo sapiens, UniProt P49327).
T1 construct: 10 μL hFASN enzyme (full length, 300 ng, purified in house); made in house
The experiment in a line: Fatty Acid Synthase (FASN) inhibition scintillation proximity assay. To be noted: for inhibition at 10 µM: read-out: Human FASN % inhibition @ 10 μM, 10 μM test compound; for IC50: read-out: Human FASN pIC50 (converted). Format: biochemical. The method, boiled down:
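Proximity read-out: hydrophobic ^3H-palmitate formed from ^3H-acetyl-CoA and malonyl-CoA binds streptavidin imaging beads, imaged at 610±20 nm at least 24 h after stopping. Enzyme was in-house purified full-length hFASN, 300 ng, in pH 7.5 phosphate/DTT buffer; compound series 30 μM down to 0.01 μM, normalized to controls, 4-parameter fit.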
On the technique in general: SPA uses beads or plates that emit light when radiolabelled molecules are held near them.

Sequence of Fatty Acid Synthase Keto-reductase Domain (FASN KR) (P49327 whole entry, the tested form may be a part): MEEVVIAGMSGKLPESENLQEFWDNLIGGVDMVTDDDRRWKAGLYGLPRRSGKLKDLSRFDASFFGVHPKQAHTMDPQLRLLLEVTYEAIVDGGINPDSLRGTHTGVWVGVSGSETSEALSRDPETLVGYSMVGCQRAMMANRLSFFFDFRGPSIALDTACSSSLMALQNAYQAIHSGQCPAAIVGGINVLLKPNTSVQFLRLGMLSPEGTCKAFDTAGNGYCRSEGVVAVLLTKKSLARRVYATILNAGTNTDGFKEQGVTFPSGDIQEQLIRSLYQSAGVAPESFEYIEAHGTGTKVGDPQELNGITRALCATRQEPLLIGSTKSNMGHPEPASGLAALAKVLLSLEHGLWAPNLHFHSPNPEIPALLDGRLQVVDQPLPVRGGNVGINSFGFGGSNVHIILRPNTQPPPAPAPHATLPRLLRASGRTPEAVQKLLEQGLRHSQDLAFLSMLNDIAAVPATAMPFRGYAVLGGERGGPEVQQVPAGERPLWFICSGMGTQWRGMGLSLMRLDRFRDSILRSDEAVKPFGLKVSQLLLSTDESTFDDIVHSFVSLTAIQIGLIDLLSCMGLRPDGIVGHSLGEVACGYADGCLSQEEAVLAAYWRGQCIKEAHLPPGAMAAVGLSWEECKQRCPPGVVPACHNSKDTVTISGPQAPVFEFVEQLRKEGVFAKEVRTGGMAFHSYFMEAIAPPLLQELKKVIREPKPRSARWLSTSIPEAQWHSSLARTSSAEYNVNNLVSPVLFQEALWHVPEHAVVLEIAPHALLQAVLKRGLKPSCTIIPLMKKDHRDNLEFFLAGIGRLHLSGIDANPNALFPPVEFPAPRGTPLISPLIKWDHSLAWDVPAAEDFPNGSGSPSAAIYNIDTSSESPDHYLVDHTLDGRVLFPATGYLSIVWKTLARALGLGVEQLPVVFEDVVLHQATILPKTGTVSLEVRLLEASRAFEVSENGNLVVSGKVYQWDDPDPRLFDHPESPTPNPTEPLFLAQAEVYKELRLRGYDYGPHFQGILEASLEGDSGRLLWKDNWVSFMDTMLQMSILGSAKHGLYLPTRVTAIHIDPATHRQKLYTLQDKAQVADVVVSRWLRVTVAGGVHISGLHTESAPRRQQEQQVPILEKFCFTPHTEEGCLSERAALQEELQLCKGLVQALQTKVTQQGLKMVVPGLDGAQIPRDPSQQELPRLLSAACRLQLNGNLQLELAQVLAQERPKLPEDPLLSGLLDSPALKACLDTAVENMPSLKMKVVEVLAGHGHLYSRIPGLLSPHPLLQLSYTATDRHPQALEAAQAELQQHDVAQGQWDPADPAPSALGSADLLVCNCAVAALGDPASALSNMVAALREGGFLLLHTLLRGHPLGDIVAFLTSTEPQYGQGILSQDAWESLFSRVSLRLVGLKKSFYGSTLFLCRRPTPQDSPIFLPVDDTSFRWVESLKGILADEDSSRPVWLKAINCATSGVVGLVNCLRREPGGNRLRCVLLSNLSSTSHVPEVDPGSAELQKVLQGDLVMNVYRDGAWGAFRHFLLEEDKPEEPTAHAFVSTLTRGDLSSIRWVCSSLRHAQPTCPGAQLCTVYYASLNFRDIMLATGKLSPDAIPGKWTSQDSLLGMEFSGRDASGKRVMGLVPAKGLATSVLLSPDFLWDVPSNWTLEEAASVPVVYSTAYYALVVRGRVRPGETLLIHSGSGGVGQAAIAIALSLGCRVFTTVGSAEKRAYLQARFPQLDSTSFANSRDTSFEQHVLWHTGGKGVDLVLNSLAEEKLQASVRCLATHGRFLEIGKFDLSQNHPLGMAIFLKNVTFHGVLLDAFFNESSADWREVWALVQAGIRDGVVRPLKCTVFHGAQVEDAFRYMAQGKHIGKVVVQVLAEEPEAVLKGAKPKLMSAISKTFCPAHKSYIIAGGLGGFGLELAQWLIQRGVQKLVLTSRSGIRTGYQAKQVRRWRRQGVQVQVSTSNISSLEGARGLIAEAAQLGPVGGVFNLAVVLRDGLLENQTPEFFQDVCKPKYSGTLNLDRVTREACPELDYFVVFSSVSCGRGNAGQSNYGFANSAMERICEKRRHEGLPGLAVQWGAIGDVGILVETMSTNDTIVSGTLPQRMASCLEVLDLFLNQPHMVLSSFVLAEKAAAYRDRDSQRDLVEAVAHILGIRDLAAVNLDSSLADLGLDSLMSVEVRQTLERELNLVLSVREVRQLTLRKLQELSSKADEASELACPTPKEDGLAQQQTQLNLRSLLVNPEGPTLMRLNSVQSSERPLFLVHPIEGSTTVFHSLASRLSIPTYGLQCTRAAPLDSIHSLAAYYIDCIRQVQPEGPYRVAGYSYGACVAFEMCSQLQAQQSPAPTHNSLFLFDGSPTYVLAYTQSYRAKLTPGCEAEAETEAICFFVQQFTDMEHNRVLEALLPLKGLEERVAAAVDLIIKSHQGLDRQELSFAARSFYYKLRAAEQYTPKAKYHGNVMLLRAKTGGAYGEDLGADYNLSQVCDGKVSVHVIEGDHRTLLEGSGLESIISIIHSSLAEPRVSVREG
T1 sequence (P49327 whole entry): as the sequence (P49327 whole entry, the tested form may be a part) above

With `Cn1cc(-c2ccc(-c3ccc(C4=NC5(CC5)C(=O)N4C[C@@H]4CCN(C(=O)C5CC5)C4)c(F)c3)cc2)cn1` [compound 323, (R)-6-((1-(cyclopropanecarbonyl)pyrrolidin-3-yl)methyl)-5-(3-fluoro-4′-(1-methyl-1H-pyrazol-4-yl)-[1,1′-biphenyl]-4-yl)-4,6-diazaspiro[2.4]hept-4-en-7-one], the IC50 is 44.7 nM in assay [1]; 8.32 nM in assay [2]; > 10000 nM in assay [3]; 33.1 nM in assay [4]; ~2.88 nM in assay [5]; 25.1 nM in assay [6]. The inhibition at 10 µM in assay [6] was determined as 101%.

Consider `O=C(C1CC1)N1CC(CN2C(=O)C3(CC3)N=C2c2ccc(-c3ccc4ccc(F)cc4c3)cc2F)C1` [compound 324, 6-((1-(cyclopropanecarbonyl)azetidin-3-yl)methyl)-5-(2-fluoro-4-(7-fluoronaphthalen-2-yl)phenyl)-4,6-diazaspiro[2.4]hept-4-en-7-one], for which the IC50 was 67.6 nM in assay [1]; ~30.2 nM in assay [2]; > 10000 nM in assay [3]; 158 nM in assay [4]; 19.5 nM in assay [5]; 32.4 nM in assay [6]. Also, the inhibition at 10 µM in assay [6] amounted to 105%.

For the compound `Cc1cc(-c2ccc(-c3cnn(C(C)C)c3)cc2)ccc1C1=NC2(CC2)C(=O)N1CC1CN(C(=O)C2CC2)C1` [compound 325, 6-((1-(cyclopropanecarbonyl)azetidin-3-yl)methyl)-5-(4′-(1-isopropyl-1H-pyrazol-4-yl)-3-methyl-[1,1′-biphenyl]-4-yl)-4,6-diazaspiro[2.4]hept-4-en-7-one], the IC50 in assay [1] was 490 nM; in assay [2], 83.2 nM; in assay [3] it was > 10000 nM; in assay [4], 363 nM; in assay [5], ~49 nM; in assay [6] it was 79.4 nM. Further, the inhibition at 10 µM in assay [6] came to 100%.

For the compound `Cc1cc(-c2ccc(-c3cnn(C4CC4)c3)cc2)ccc1C1=NC2(CC2)C(=O)N1CC1CN(C(=O)C2CC2)C1` [compound 326, 6-((1-(cyclopropanecarbonyl)azetidin-3-yl)methyl)-5-(4′-(1-cyclopropyl-1H-pyrazol-4-yl)-3-methyl-[1,1′-biphenyl]-4-yl)-4,6-diazaspiro[2.4]hept-4-en-7-one], the IC50 in assay [1] is 407 nM; in assay [2] it was 49 nM; in assay [3] it was 9120 nM; in assay [4] it was 170 nM; in assay [5], ~12 nM; in assay [6], 39.8 nM. In addition, the inhibition at 10 µM in assay [6] amounted to 103%.

On to `CC(C)n1cc(-c2ccc(-c3ccc(C4=NC5(CC5)C(=O)N4CC4CN(C(=O)C5CC5)C4)c(F)c3)cc2)cn1` [compound 327, 6-((1-(cyclopropanecarbonyl)azetidin-3-yl)methyl)-5-(3-fluoro-4′-(1-isopropyl-1H-pyrazol-4-yl)-[1,1′-biphenyl]-4-yl)-4,6-diazaspiro[2.4]hept-4-en-7-one], for which the IC50 in assay [1] is 158 nM; in assay [2], 34.7 nM; in assay [3], 8130 nM; in assay [4] it was 138 nM; in assay [5] it was 10.5 nM; in assay [6] it was 32.4 nM. The inhibition at 10 µM in assay [6] worked out at 104%.

For `O=C(C1CC1)N1CC(CN2C(=O)C3(CC3)N=C2c2ccc(-c3ccc(-c4cnn(C5CC5)c4)cc3)cc2F)C1` [compound 328, 6-((1-(cyclopropanecarbonyl)azetidin-3-yl)methyl)-5-(4′-(1-cyclopropyl-1H-pyrazol-4-yl)-3-fluoro-[1,1′-biphenyl]-4-yl)-4,6-diazaspiro[2.4]hept-4-en-7-one], the IC50 in assay [1] is 79.4 nM; in assay [2], 16.2 nM; in assay [3] it was 10000 nM; in assay [4], 53.7 nM; in assay [5] it was 5.13 nM; in assay [6], 31.6 nM. In assay [6], the inhibition at 10 µM came out at 98%.

Take `CC(C)n1cc(-c2ccc(-c3ccc(C4=NC5(CC5)C(=O)N4CC4CN(C(=O)C5CC5)C4)cc3)cc2)cn1` [compound 331]: the IC50 in assay [1] is 245 nM; in assay [2] it was 148 nM; in assay [3], 5620 nM; in assay [4] it was 617 nM; in assay [5] it was 69.2 nM; in assay [6], 66.1 nM. The inhibition at 10 µM in assay [6] was 100%.

Consider `COc1ccc2cc(-c3ccc(C4=NC5(CC5)C(=O)N4CC4CN(C(=O)C5(C)CC5)C4)c(C)c3)ccc2c1` [compound 332, 5-(4-(6-methoxynaphthalen-2-yl)-2-methylphenyl)-6-((1-(1-methylcyclopropanecarbonyl)azetidin-3-yl)methyl)-4,6-diazaspiro[2.4]hept-4-en-7-one], for which the IC50 in assay [1] is 60.3 nM; in assay [2], 12.3 nM; in assay [3], 4170 nM; in assay [4], 107 nM; in assay [5] it was 12.3 nM; in assay [6], 18.6 nM. In assay [6], the inhibition at 10 µM worked out at 100%.

Regarding `Cc1cc(-c2ccc(-c3cnn(C)c3)cc2)ccc1C1=NC2(CC2)C(=O)N1CC1CN(C(=O)C2CC2)C1` [compound 333, 6-((1-(cyclopropanecarbonyl)azetidin-3-yl)methyl)-5-(3-methyl-4′-(1-methyl-1H-pyrazol-4-yl)-[1,1′-biphenyl]-4-yl)-4,6-diazaspiro[2.4]hept-4-en-7-one], the IC50 in assay [1] is 178 nM; in assay [2] it was ~339 nM; in assay [3], > 10000 nM; in assay [4], 537 nM; in assay [5] it was ~33.1 nM; in assay [6], 55 nM. Also, the inhibition at 10 µM in assay [6] amounted to 98%.

Consider `Cc1ccc2cc(-c3ccc(C4=NC5(CC5)C(=O)N4CC4CN(C(=O)C5(C)CC5)C4)c(C)c3)ccc2c1` [compound 334, 5-(2-methyl-4-(6-methylnaphthalen-2-yl)phenyl)-6-((1-(1-methylcyclopropanecarbonyl)azetidin-3-yl)methyl)-4,6-diazaspiro[2.4]hept-4-en-7-one], for which the IC50 is 43.7 nM in assay [1]; 37.2 nM in assay [2]; 6920 nM in assay [3]; 162 nM in assay [4]; 24 nM in assay [5]; 21.9 nM in assay [6]. Besides, the inhibition at 10 µM in assay [6] amounted to 97%.

Turning to `Cc1cc(-c2ccc3cnn(C)c3c2)ccc1C1=NC2(CC2)C(=O)N1CC1CN(C(=O)C2(C)CC2)C1` [compound 335, 5-(2-methyl-4-(1-methyl-1H-indazol-6-yl)phenyl)-6-((1-(1-methylcyclopropanecarbonyl)azetidin-3-yl)methyl)-4,6-diazaspiro[2.4]hept-4-en-7-one], the IC50 in assay [1] is 166 nM; in assay [2], ~115 nM; in assay [3] it was > 10000 nM; in assay [4], 603 nM; in assay [5], 138 nM; in assay [6], 64.6 nM. Also, the inhibition at 10 µM in assay [6] is 105%.

For the compound `Cc1cc(-c2ccc(-c3cnn(C4CC4)c3)cc2)ccc1C1=NC2(CC2)C(=O)N1CC1CN(C(=O)C2(C)CC2)C1` [compound 337, 5-(4′-(1-cyclopropyl-1H-pyrazol-4-yl)-3-methyl-[1,1′-biphenyl]-4-yl)-6-((1-(1-methylcyclopropanecarbonyl)azetidin-3-yl)methyl)-4,6-diazaspiro[2.4]hept-4-en-7-one], the IC50 is 79.4 nM in assay [1]; 20.4 nM in assay [2]; 6920 nM in assay [3]; 79.4 nM in assay [4]; 38 nM in assay [5]; 36.3 nM in assay [6]. Further, the inhibition at 10 µM in assay [6] amounted to 105%.

Turning to `Cc1cc(-c2ccc(-c3cnn(C4CCC4)c3)cc2)ccc1C1=NC2(CC2)C(=O)N1CC1CN(C(=O)C2(C)CC2)C1` [compound 338, 5-(4′-(1-cyclobutyl-1H-pyrazol-4-yl)-3-methyl-[1,1′-biphenyl]-4-yl)-6-((1-(1-methylcyclopropanecarbonyl)azetidin-3-yl)methyl)-4,6-diazaspiro[2.4]hept-4-en-7-one], the IC50 in assay [1] was 148 nM; in assay [2], 19.1 nM; in assay [3], ~4270 nM; in assay [4], 126 nM; in assay [5], 21.9 nM; in assay [6], 43.7 nM. Further, the inhibition at 10 µM in assay [6] was 106%.

Turning to `O=C(C1CC1)N1CC(CN2C(=O)C3(CC3)N=C2c2ccc(-c3ccc4cc(Cl)cnc4c3)cc2)C1` [compound 339, 5-(4-(3-chloroquinolin-7-yl)phenyl)-6-((1-(cyclopropanecarbonyl)azetidin-3-yl)methyl)-4,6-diazaspiro[2.4]hept-4-en-7-one], the IC50 in assay [1] is 47.9 nM; in assay [2], 31.6 nM; in assay [3] it was ~2820 nM; in assay [4], 324 nM; in assay [5], 28.8 nM; in assay [6] it was 30.9 nM. For the same compound, the inhibition at 10 µM in assay [6] was 95%.
